# Read-outs that look alike come from different tables or passages of the source.
# Tests used:
# [1] = tested on: 5-LO-dependent generation of LTB4 from activated human whole blood; test: Inhibition of 5-LO product LTB4 from activated human whole blood (LPS/FMLP); format: cell-based; details: LPS-primed, FMLP-stimulated human whole blood; 95% confidence interval in brackets; read-out: Human whole blood LTB4 IC50 (CI)
# Protocol: All compounds were evaluated for inhibitory activity against the 5-LO-dependent generation of LTB4 from activated human whole blood. With ethical approval from the Health Sciences Centre Ethical Committee of Kuwait University, heparinised fresh human blood samples from apparently healthy individuals of both sexes were obtained from the Kuwait Central Blood Bank. All donors gave informed consent and the work was carried out in accordance with the “Declaration of Helsinki” for experiments involving human subjects. Aliquots of 185 µl of whole blood were dispensed into each well of a 96-well culture plate containing 5 µl of the priming agent, LPS (1 µg/ml final concentration). […] After further incubation for 15 min at 37 °C, 5 µl of FMLP (1 µM final concentration) was added to stimulate LT production. The reaction was stopped 15 min later, and the supernatants were recovered by centrifugation and stored at −40 °C pending analysis of LTB4 content.
# (§1) Appropriately diluted supernatants were assayed for the released products – LTs (LTB4 and LTC4), by the enzyme immunoassay (EIA) method using assay kits supplied by R&D Systems (Minneapolis, MN) and following the manufacturer’s instructions.
# (§2) All data were analysed using GraphPad Prism software (GraphPad Software, San Diego, CA). […] Differences between experimental groups were first analysed by one-way ANOVA, followed by Bonferroni’s post-hoc test. A p-value of less than 0.05 was taken as statistically significant.
# [2] = tested on: 5-LO product LTC4 from isolated human monocytes; test: Inhibition of 5-LO product LTC4 from isolated human monocytes (A23187); format: cell-based; details: calcium ionophore A23187, 95% confidence interval in brackets, read-out: Human monocyte LTC4 IC50 (CI)
# Protocol: Mononuclear cells were first isolated from heparinised blood using the Ficoll-Hypaque gradient centrifugation method. Monocytes were subsequently purified by adherence to plastic according to standard protocols. The purity of the adherent monocytes (CD14+) was routinely confirmed by flow cytometry to be >95% and viability (by trypan blue exclusion method) was routinely >97%. Adherent monocytes were then washed and incubated in 190 µl culture medium RPMI-1640 supplemented with 100 U/ml penicillin, 100 µg/ml streptomycin and 10% heat-inactivated foetal bovine serum (Sigma-Aldrich, St Louis, MO). […] After further incubation for 15 min, the culture supernatants were recovered by centrifugation and stored at −40 °C pending LTC4 determination.
# as §1, §2
# [3] = biological target: T1, recombinant human 5-LO (Homo sapiens, UniProt P09917); test: Direct inhibition of 5-LO activity in a cell-free assay (H2DCF-DA fluorescence); format: biochemical; details: for IC50: cell-free, recombinant human 5-LO, 95% confidence interval in brackets
# T1 sequence (P09917 1-674): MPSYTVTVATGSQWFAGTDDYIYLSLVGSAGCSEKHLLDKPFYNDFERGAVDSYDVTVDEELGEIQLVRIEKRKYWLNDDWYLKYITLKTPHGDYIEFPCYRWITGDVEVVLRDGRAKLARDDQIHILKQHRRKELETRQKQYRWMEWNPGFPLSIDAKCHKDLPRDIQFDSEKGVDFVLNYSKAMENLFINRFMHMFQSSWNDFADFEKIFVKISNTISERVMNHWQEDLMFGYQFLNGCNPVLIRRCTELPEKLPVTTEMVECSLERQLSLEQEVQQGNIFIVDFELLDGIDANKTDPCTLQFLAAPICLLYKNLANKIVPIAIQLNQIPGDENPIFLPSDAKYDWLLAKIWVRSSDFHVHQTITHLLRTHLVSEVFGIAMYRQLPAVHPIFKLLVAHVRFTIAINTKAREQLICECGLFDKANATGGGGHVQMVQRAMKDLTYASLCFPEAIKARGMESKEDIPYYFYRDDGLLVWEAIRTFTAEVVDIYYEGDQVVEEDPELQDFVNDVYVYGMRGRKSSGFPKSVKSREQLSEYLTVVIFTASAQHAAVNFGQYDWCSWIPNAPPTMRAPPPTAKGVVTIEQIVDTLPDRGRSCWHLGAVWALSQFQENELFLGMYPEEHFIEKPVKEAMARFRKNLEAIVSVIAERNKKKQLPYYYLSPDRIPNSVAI
# Protocol: The assay was based on the oxidation of the dye 2′,7′-dichlorodihydrofluorescein diacetate (H2DCF-DA) to a highly fluorescent product by 5-LO enzymatic products. H2DCF-DA (60 µM) was first pre-cleaved by incubating with 450 mU/ml recombinant human 5-LO enzyme in Tris buffer (containing 50 mM Tris, pH = 7.5, 2 mM EDTA, 2 mM CaCl2, 1 mM DTT and 0.6 U/ml glutathione peroxidase) for 10 min at room temperature. […] After 10 min incubation at room temperature, the reaction was started with the addition of 50 µl of substrate solution (Tris buffer containing 20 µM ATP and 20 µM arachidonic acid (AA). After a further 20 min, the reaction was terminated with 100 µl acetonitrile. Fluorescence was read at 500 nm excitation and 520 nm emission, with Novostar^R microplate reader (BMG Labtech, Offenburg, Germany). Appropriate controls, including 100 µM nordihydroguaiaretic acid (NDGA), were included to isolate only the 5-LO-attributable, NDGA-inhibitable RFU values.
# as §2
# [4] = tested on: leukotriene (LT) biosynthesis / 5-LO; test: Overall activity across the four in vitro test systems (three cell-based LT release assays and 5-LO); details: for Activity across the in vitro test systems (in words): cell-based systems and cell-free 5-LO
# Protocol: Furthermore, in order to confirm that the in vitro inhibitory activity of the compounds was not due to the direct toxic effects on the cells, the effect of the compounds on the viability of isolated human monocytes after 3 h and 24 h treatment was performed. Finally, in vivo anti-inflammatory studies were performed using the zymosan-induced peritoneal inflammation model in mice, which is a well-known model in which the LTs are known to play a critical role[26].
# The inhibitory activity data for the tested compounds obtained in three cell-based in vitro test systems - LTB4 release from human whole blood, LTC4 release from isolated human monocytes and LTC4 release from IgE/antigen-activated mouse mast cells, are shown in Table 1. Similar data on the direct inhibitory effect on the enzymatic activity of recombinant human 5-LO, together with the calculated Clog P (log of partition coefficient) values, which is an indication of the lipophilicity of each compound, are also shown in Table 1.
# [5] = tested on: 5-LO product LTC4 from allergen/IgE-activated bone marrow-derived mouse mast cells (BMMC); test: Inhibition of 5-LO product LTC4 from allergen/IgE-activated bone marrow-derived mouse mast cells (BMMC); format: cell-based; details: anti-DNP IgE/DNP-BSA-activated BMMC, 95% confidence interval in brackets, read-out: Mouse mast cell LTC4 IC50 (CI)
# Protocol: Bone marrow-derived mast cells (BMMC) were generated from pathogen-free 5 to 7-weeks-old male Balb/c mice according to the method of Davis et al.[28]. Essentially, bone marrow cells were obtained by flushing the femoral bone marrow and the recovered cells cultured in RPMI 1640 medium supplemented with 10% FBS, 100 U/ml penicillin, and 100 µg/ml streptomycin, 25 mM HEPES, 1.0 mM sodium pyruvate, 0.1 mM nonessential amino acids, 0.0035% 2-mercaptoethanol, and 30 ng/ml mouse recombinant IL-3, with culture medium, replaced every 2 days. Cells were used after 4–8 weeks of culture, by which time at least 97% of the cells would have differentiated into mast cells, as routinely obtained in our laboratory.
# The generated BMMCs were seeded at 5 × 10^4 cells/well in a 96-well flat-bottom culture plate and passively sensitised overnight with 0.5 µg/ml anti-DNP monoclonal IgE antibody. The cells were then washed twice to remove any unbound antibody and subsequently resuspended in reaction buffer (135 mM NaCl, 5 mM KCl, 1.8 mM CaCl2, 1 mM MgCl2, 5.6 mM glucose, 0.05% BSA and 20 mM HEPES, pH 7.4). They were then pre-incubated with the test compounds (0.001 − 30 μM) or the solvent (0.05% DMSO) for 15 min before being stimulated with the specific antigen, DNP-BSA (10–30 ng/ml). After 30 min incubation at 37 °C, the amount of LTC4 released into the supernatant was determined by ELISA as described below.
# as §1, §2
# [6] = read-out: Direct inhibition of 5-LO activity. IC50 (CI)
SMILES,IC50 [1] [µM],IC50 ([2]; Monocyte) [µM],melting point [°C],IC50 [3] [µM],IC50 ([5]; Mus musculus) [µM],IC50 [2] [µM],Inhibition of isolated 5-LO enzyme activity (in words) ([3]; cell-free experiments),"IC50 [3, 6] [µM]",IC50 [5] [µM],"IC50 ([4]; summary statements, in vitro test systems, read-out: IC50 (test system not specified / across test systems)) [µM]",Activity across the in vitro test systems (in words) [4]
"CC(C)CC(=O)ON(C[C@H]1CN(c2ccc(N3CCOCC3)c(F)c2)C(=O)O1)C(=O)CC(C)C [PH-237, (R)-N-((3-(3-fluoro-4-morpholinophenyl)-2-oxooxazolidin-5-yl)methyl)-3-methyl-N-((3-methylbutanoyl)oxy)butanamide]",> 50,> 50,89 to 90,> 30,> 50,,,,,,inactive in both systems
"CC(c1cc2ccccc2s1)N(O)C(N)=O (racemic) [Zileuton, (±)1–(1-(benzo[b]thiophen-2-yl)-ethyl)-1-hydroxyurea, reference compound]",0.7,0.5,,,0.4,,,,,,
"CCCCCC(=O)N(O)C[C@H]1CN(c2ccc(N3CCOCC3)c(F)c2)C(=O)O1 [PH-247, (R)-N-((3-(3-fluoro-4-morpholinophenyl)-2-oxooxazolidin-5-yl)methyl)-N-hydroxyhexanamide]",2.3,2.5,118.5 to 120.5,3.4,2.9,,,,,,active in all four test systems
CCCCCC(=O)ON(C[C@H]1CN(c2ccc(N3CCOCC3)c(F)c2)C(=O)O1)C(=O)CCCCC [PH-246],1.5,,,,,7.1,very weak,21.6,3.3,,
"CCCCCCCC(=O)N(O)C[C@H]1CN(c2ccc(N3CCOCC3)c(F)c2)C(=O)O1 [PH-251, (R)-N-((3-(3-fluoro-4-morpholinophenyl)-2-oxooxazolidin-5-yl)methyl)-N-hydroxyoctanamide]",1.9,2.4,,1.6,0.2,,,,,< 1,active in all four test systems
"CCCCC(=O)N(O)C[C@H]1CN(c2ccc(N3CCOCC3)c(F)c2)C(=O)O1 [PH-241, (R)-N-((3-(3-fluoro-4-morpholinophenyl)-2-oxooxazolidin-5-yl)methyl)-N-hydroxypentanamide]",2.2,3.2,,3.3,2.8,,,,,,active in all four test systems

# Now from value to compound, other results behind:
IC50 [1] [µM],IC50 ([2]; Monocyte) [µM],melting point [°C],IC50 [3] [µM],IC50 ([5]; Mus musculus) [µM],IC50 [2] [µM],Inhibition of isolated 5-LO enzyme activity (in words) ([3]; cell-free experiments),"IC50 [3, 6] [µM]",IC50 [5] [µM],"IC50 ([4]; summary statements, in vitro test systems, read-out: IC50 (test system not specified / across test systems)) [µM]",SMILES,Activity across the in vitro test systems (in words) [4]
3.4,,,,,,,,,,"O=C(C1CCC1)N(O)C[C@H]1CN(c2ccc(N3CCOCC3)c(F)c2)C(=O)O1 [PH-245, (R)-N-((3-(3-fluoro-4-morpholinophenyl)-2-oxooxazolidin-5-yl)methyl)-N-hydroxycyclobutanecarboxamide]",
5.5,,,,,,,,,,"O=C(C1CCCC1)N(O)C[C@H]1CN(c2ccc(N3CCOCC3)c(F)c2)C(=O)O1 [PH-244, (R)-N-((3-(3-fluoro-4-morpholinophenyl)-2-oxooxazolidin-5-yl)methyl)-N-hydroxycyclopentanecarboxamide]",
3.5,8,122 to 124.5,4.7,3.1,,,,,,"CC(C)CC(=O)N(O)C[C@H]1CN(c2ccc(N3CCOCC3)c(F)c2)C(=O)O1 [PH-239, (R)-N-((3-(3-fluoro-4-morpholinophenyl)-2-oxooxazolidin-5-yl)methyl)-N-hydroxy-3-methylbutanamide]",active in all four test systems
1.3,,,,,7.5,,3.5,8.7,,O=C(C1CC1)N(O)C[C@H]1CN(c2ccc(N3CCOCC3)c(F)c2)C(=O)O1 [PH-211],active in all four test systems
